Results from patent publication EP4620949A1, “ACKR3 MODULATORS FOR CARDIOVASCULAR OR ANTIPLATELET THERAPY” (Eberhard Karls Universität Tübingen (Medizinische Fakultät), priority 2024, dated 2025).
“And” between values parts separate entries of the source, which are not always exact repeats. Identical values can stand only once.

Columns and labels:
human ACKR3 = target: T1, human ACKR3 (Homo sapiens, UniProt P25106); test: ACKR3 β-Arrestin recruitment assay (NanoLuc complementation, NanoBiT) in HEK293T cells; type: cell-based; conditions: for EC50: ACKR3, HEK293T cells, average value of three independent experiments; for Efficacy (Emax) vs CXCL12: efficacy of CXCL12 at 300 nM set as 100%, average of three independent experiments
T1 construct: expressed in transfected cells; host or cells: HEK293T
Description: ACKR3 β-Arrestin Recruitment Assay. […] T.; Encell, L. P.; Wood, K. V. Nanoluc complementation reporter optimized for accurate measurement of protein interactions in cells. […] B.; Reynders, N.; Vanderplasschen, A.; Ollert, M.; Bouvier, M.; Szpakowska, M.; Chevigné, A. Proadrenomedullin n-terminal 20 peptides (pamps) are agonists of the chemokine scavenger receptor ACKR3/CXCR7. […] The prepared cells were then treated with compounds at concentrations ranging from 0.3 nM to 100 µM. Induction of β-Arrestin recruitment to receptors was evaluated by measuring bioluminescence with a Mithras LB940 luminometer (Berthold Technologies).
All curves were fitted to data points generated from the mean of at least three independent experiments. Results with values of p < 0.05 were considered statistically significant.

platelets = test: Flow cytometry assay of platelet degranulation (P-Selectin surface expression in PRP); type: cell-based, human; conditions: PRP pre-incubated with compound (100 µM), then CRP-XL (1 µg/mL); % ±SEM normalized to CRP-XL-treated vehicle PRP
Description: Platelet Degranulation Studies of Derivatives. Concurrent with the β-Arrestin recruitment potency optimization, the compounds were also tested and developed according to their functional activity. To determine the ability of a compound to modulate platelets, P-Selectin surface expression was measured. P-Selectin is a surface protein involved in cell adhesion mechanisms and can be found on activated platelets. After induction of platelet aggregation in platelet-rich plasma (PRP), treatment with the respective compound should therefore lead to a significant reduction in P-Selectin expression. […]. […]. Similarly, platelet degranulation potency was highly sensitive toward "linker"-changes (Structure C, Table 1). A distinct trend could not be registered. […]. Flow Cytometry Assay. The inhibition of platelet degranulation was determined via flow cytometry experiments. Platelets were treated with collagen-related peptide (CRP-XL, CambCol Laboratories, Cambridge, UK) and the platelets' activation state was determined (Geue, S.; Aurbach, K.; Manke, M.-C.; Manukjan, G.; Münzer, P.; Stegner, D.; Brähler, C.; Walker-Allgaier, B.; Märklin, M.; Borst, C. E.; Quintanilla-Fend, L.; Rath, D.; Geisler, T.; Salih, H. R.; Seizer, P.; Lang, F.; Nieswandt, B.; Gawaz, M.; Schulze, H.; Pleines, I.; Borst, O. Pivotal role of pdk1 in megakaryocyte cytoskeletal dynamics and polarization during platelet biogenesis. Blood 2019, 134, 1847-1858; and Malehmir, M.; Pfister, D.; Gallage, S.; Szydlowska, M.; Inverso, D.; Kotsiliti, E.; Leone, V.; Peiseler, M.; Surewaard, B. G. J.; Rath, D.; Ali, A.; Wolf, M. J.; Drescher, H.; Healy, M. E.; Dauch, D.; Kroy, D.; Krenkel, O.; Kohlhepp, M.; Engleitner, T.; Olkus, A.; Sijmonsma, T.; Volz, J.; Deppermann, C.; Stegner, D.; Helbling, P.; Nombela-Arrieta, C.; Rafiei, A.; Hinterleitner, M.; Rail, M.; Baku, F.; Borst, O.; Wilson, C. L.; Leslie, J.; O'Connor, T.; Wes-ton, C. J.; Chauhan, A.; Adams, D. H.; Sheriff, L.; Teijeiro, A.; Prinz, M.; Bogeska, R.; An-stee, N.; Bongers, M. N.; Notohamiprodjo, M.; Geisler, T.; Withers, D. J.; Ware, J.; Mann, D. A.; Augustin, H. G.; Vegiopoulos, A.; Milsom, M. D.; Rose, A. J.; Lalor, P. F.; Llovet, J. M.; Pinyol, R.; Tacke, F.; Rad, R.; Matter, M.; Djouder, N.; Kubes, P.; Knolle, P. A.; Unger, K.; Zender, L.; Nieswandt, B.; Gawaz, M.; Weber, A.; Heikenwalder, M. Platelet gpibα is a mediator and potential interventional target for nash and subsequent liver cancer. Nat. Med. 2019, 25, 641-655). Briefly, PRP was isolated from peripheral human blood collected in citrate-phosphate-dextrose solution with adenine (CPDA) and diluted with phosphate-buffered saline (PBS) (Sigma Aldrich Co., Ltd., St. Luis, Missouri, USA) supplemented with CaCl2 and MgCl2. PRP (106 platelets /sample) was preincubated with the respective compound (100 µM) for 15 min. Samples were treated with 1 µg/ml CRP-XL (CambCol Laboratories, Cambridge, UK) for 30 min at room temperature in the presence of the respective fluorochrome-conjugated antibody against P-Selectin (CD62P-FITC; Beckman Coulter, Brea, CA, USA). Subsequently, samples were fixed in 0.5% paraformaldehyde and analyzed on a FACS-Calibur flow cytometer (FACS-Caliber flow cytometer, Becton-Dickinson, East Rutherford, NJ, USA). Mean fluorescence intensity (MFI) was used as a quantitative measurement of platelet surface expression.

T1 sequence (P25106 whole entry): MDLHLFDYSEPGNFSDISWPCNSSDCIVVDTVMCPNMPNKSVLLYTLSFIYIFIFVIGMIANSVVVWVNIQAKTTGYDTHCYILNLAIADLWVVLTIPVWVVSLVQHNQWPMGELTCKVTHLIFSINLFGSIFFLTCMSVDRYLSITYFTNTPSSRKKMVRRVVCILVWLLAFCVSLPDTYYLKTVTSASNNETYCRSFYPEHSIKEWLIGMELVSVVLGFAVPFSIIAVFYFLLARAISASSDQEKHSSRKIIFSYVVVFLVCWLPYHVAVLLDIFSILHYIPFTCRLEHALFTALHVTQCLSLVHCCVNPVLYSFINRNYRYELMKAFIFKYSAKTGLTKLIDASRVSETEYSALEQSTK
T1 sequence (P49407 whole entry partner): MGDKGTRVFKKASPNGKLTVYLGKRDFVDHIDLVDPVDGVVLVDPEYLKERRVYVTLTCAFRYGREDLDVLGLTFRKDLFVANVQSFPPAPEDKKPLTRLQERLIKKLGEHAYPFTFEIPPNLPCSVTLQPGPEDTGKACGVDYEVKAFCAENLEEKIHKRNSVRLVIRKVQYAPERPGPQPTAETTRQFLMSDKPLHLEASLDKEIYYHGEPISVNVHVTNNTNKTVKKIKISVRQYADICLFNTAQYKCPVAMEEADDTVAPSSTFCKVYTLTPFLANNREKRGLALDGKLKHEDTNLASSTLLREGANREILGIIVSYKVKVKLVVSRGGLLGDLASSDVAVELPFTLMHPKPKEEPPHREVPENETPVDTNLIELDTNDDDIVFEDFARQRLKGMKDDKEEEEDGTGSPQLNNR

Row | Compound | EC50 (human ACKR3) | P-Selectin expression reduction (platelets) | also measured
1 | O=C(NCCCNCc1ccccc1)c1ccc(-c2ccccc2)s1 [Compound 34, N-(3-(benzylamino)propyl)-5-phenylthiophene-2-carboxamide] | – | 95±1% | –
2 | O=C(NCCCN1CCc2ccccc2C1)c1ccc(-c2ccccc2)s1 [Compound 35, N-(3-(3,4-dihydroisoquinolin-2(1H)-yl)propyl)-5-phenylthiophene-2-carboxamide] | – | 27±9% | –
3 | CCN(CCCNC(=O)c1ccc(-c2cccc(F)c2)s1)Cc1ccc(F)cc1 [Compound 32, N-(3-(ethyl(4-fluorobenzyl)amino)propyl)-5-(3-fluorophenyl)thiophene-2-carboxamide] | – | 96±1% | –
4 | O=C(NCc1cccc([N+](=O)[O-])c1)c1ccc(-c2ccccc2)s1 [Compound 42, N-(3-nitrobenzyl)-5-phenylthiophene-2-carboxamide] | – | 17±3% | –
5 | CN(CCCNC(=O)c1ccc(-c2cccc(F)c2)s1)Cc1ccccc1 [Compound 16, N-(3-(benzyl(methyl)amino)propyl)-5-(3-fluorophenyl)thiophene-2-carboxamide] | 267 nM | – | more potent than 1 (human ACKR3; β-Arrestin recruitment potency relative to compound 1): up to 1.5 fold
6 | CC(C)(C)OC(=O)N1CCCC(CNC(=O)c2ccc(-c3ccccc3)s2)C1 (centres unmarked) [Compound 38, tert-butyl 3-((5-phenylthiophene-2-carboxamido)methyl)piperidine-1-carboxylate] | 4680 nM | – | –
7 | CN(CCCNC(=O)c1ccc(-c2ccccc2)s1)Cc1ccccc1 [Compound 1, N-(3-(benzyl(methyl)amino)propyl)-5-phenylthiophene-2-carboxamide] | – | 71% and 74±9% | –
8 | CN(CCCNC(=O)c1cc2ccccc2[nH]1)Cc1ccccc1 [Compound 4, N-(3-(benzyl(methyl)amino)propyl)-1H-indole-2-carboxamide] | 2670 nM | – | –
9 | CN(CCCNC(=O)c1ccc(-c2ccc(F)cc2)s1)Cc1ccccc1 [Compound 14, N-(3-(benzyl(methyl)amino)propyl)-5-(4-fluorophenyl)thiophene-2-carboxamide] | – | 87±7% | –
10 | CN(CCCNC(=O)c1ccc(-c2ccccc2)s1)Cc1ccc(Br)cc1 [Compound 19, N-(3-((4-bromobenzyl)(methyl)amino)propyl)-5-phenylthiophene-2-carboxamide] | – | 89±3% | –
11 | CN(CCCNC(=O)c1ccc(-c2ccccc2)s1)Cc1cccc(F)c1 [Compound 22, N-(3-((3-fluorobenzyl)(methyl)amino)propyl)-5-phenylthiophene-2-carboxamide] | – | 66% and 66±14% | –
12 | CN(CCCNC(=O)c1ccc(-c2ccccc2F)s1)Cc1ccccc1 [Compound 15, N-(3-(benzyl(methyl)amino)propyl)-5-(2-fluorophenyl)thiophene-2-carboxamide] | – | 71±11% | –
13 | CN(CCCNC(=O)c1ccc(-c2cc(F)cc(F)c2)s1)Cc1ccccc1 [Compound 17, N-(3-(benzyl(methyl)amino)propyl)-5-(3,5-difluorophenyl)thiophene-2-carboxamide] | – | 81±9% | –
14 | CN(CCCNC(=O)CSc1ccccc1)Cc1ccccc1 [Compound 7, N-(3-(benzyl(methyl)amino)propyl)-2-(phenylthio)acetamide] | 809000 nM | – | Efficacy (Emax) vs CXCL12 (human ACKR3): 99%
15 | CN1CCCC1CCNC(=O)c1csc(-c2ccccc2)n1 (centres unmarked) [Compound 44, N-(2-(1-methylpyrrolidin-2-yl)ethyl)-2-phenylthiazole-4-carboxamide] | 3000 nM | – | –
16 | O=C(NCCCN(Cc1ccccc1)C1CC1)c1ccc(-c2ccccc2)s1 [Compound 25, N-(3-(benzyl(cyclopropyl)amino)propyl)-5-phenylthiophene-2-carboxamide] | – | 16±7% | –
17 | Cc1ccc(-c2ccc(C(=O)NCCCN(C)Cc3ccccc3)s2)cc1 [Compound 9, N-(3-(benzyl(methyl)amino)propyl)-5-(p-tolyl)thiophene-2-carboxamide] | 576 nM | – | –
18 | CN(CCCNC(=O)c1cc2ccccc2s1)Cc1ccccc1 [Compound 3, N-(3-(benzyl(methyl)amino)propyl)benzo[b]thiophene-2-carboxamide] | 775 nM | – | –

Now from value to compound, other results behind:

Row | EC50 (human ACKR3) | Compound | P-Selectin expression reduction (platelets) | also measured
19 | 76000 nM and 89000 nM | O=C(Nc1cccc(CN2CCCN(C(=O)c3ccc(-c4ccccc4)s3)CC2)c1)c1ccc(F)cc1 [Compound 41, 4-fluoro-N-(3-((4-(5-phenylthiophene-2-carbonyl)-1,4-diazepan-1-yl)methyl)phenyl)benzamide] | – | Efficacy (Emax) vs CXCL12 (human ACKR3): 50%
20 | 930 nM | COc1ccc(CN(C)CCCNC(=O)c2ccc(-c3ccccc3)s2)cc1 [Compound 18, N-(3-((4-methoxybenzyl)(methyl)amino)propyl)-5-phenylthiophene-2-carboxamide] | – | –
21 | 1720 nM | CN(CCCNC(=O)c1ccc(-c2ccncc2)s1)Cc1ccccc1 [Compound 13, N-(3-(benzyl(methyl)amino)propyl)-5-(pyridin-4-yl)thiophene-2-carboxamide] | – | –
22 | 370 nM | CN(CCCNC(=O)c1ccc(-c2ccccc2)s1)Cc1ccc(F)cc1 [Compound 20, N-(3-((4-fluorobenzyl)(methyl)amino)propyl)-5-phenylthiophene-2-carboxamide] | – | –
23 | 3350 nM | O=C(Nc1cccc(CNC(=O)c2ccc(-c3ccccc3)s2)c1)c1ccc(F)cc1 [Compound 43, N-(3-(4-fluorobenzamido)benzyl)-5-phenylthiophene-2-carboxamide] | – | –
24 | 10200 nM | CN(CCCNC(=O)c1ccc(-c2ccc(C(C)(C)C)cc2)s1)Cc1ccccc1 [Compound 10, N-(3-(benzyl(methyl)amino)propyl)-5-(4-(tert-butyl)phenyl)thiophene-2-carboxamide] | – | –
25 | 2100 nM and 1100 nM | CN(CCCNC(=O)c1ccc(-c2ccccc2)s1)Cc1cccc(NC(=O)c2ccc(F)cc2)c1 [Compound 36, N-(3-((3-(4-fluorobenzamido)benzyl)(methyl)amino)propyl)-5-phenylthiophene-2-carboxamide] | – | Efficacy (Emax) vs CXCL12 (human ACKR3): 86%
26 | 3200 nM and 2500 nM | CC(C)(C)NC(=O)C1CCN(CCCNC(=O)c2ccc(-c3ccccc3)s2)CC1 [Compound 37, N-(tert-butyl)-1-(3-(5-phenylthiophene-2-carboxamido)propyl)piperidine-4-carboxamide] | – | Efficacy (Emax) vs CXCL12 (human ACKR3): 102%
27 | 709 nM | CC(C)N(CCCNC(=O)c1ccc(-c2ccccc2)s1)Cc1ccccc1 [Compound 24, N-(3-(benzyl(isopropyl)amino)propyl)-5-phenylthiophene-2-carboxamide] | – | –
28 | 1500 nM and 1100 nM | O=C(NCc1ccccc1)C1CCN(Cc2csc(-c3ccccc3)n2)CC1 [Compound 48, N-benzyl-1-((2-phenylthiazol-4-yl)methyl)piperidine-4-carboxamide] | – | Efficacy (Emax) vs CXCL12 (human ACKR3): 110%
29 | 1620 nM | CN(CCCNC(=O)c1ccc(Br)s1)Cc1ccccc1 [Compound 2, N-(3-(benzyl(methyl)amino)propyl)-5-bromothiophene-2-carboxamide] | – | –
